The subject of series [1] is human bone marrow stromal cells, mesenchymal stem cells (MSC).
Procedure: The assay was performed with human bone marrow stromal cells, mesenchymal stem cells (MSC). In a first step, the cells were seeded in a white 96-well cell culture plate and incubated for 24 h in a CO2-Incubator (37°C, 5% CO2, 95% humidity) at a cell density of 5.000 cells/well. After the resting time of 24 hours, diluted samples containing test compounds were added to the plate in equal volumes of 50 µl to reach the desired concentrations of interest and a final volume of 100 µl per well. Samples of L-cysteine were compared to Cys-peptides and each sample was tested in triplicates. The control was rested in medium without sample. […] The viability was determined based on the quantification of the ATP present in the cells per well. Through the luminescence detection of luciferase using a multiplate reader the ATP amount was measured and quantified. Resulting luminescence signal of samples was normalized to the signal of control cells. […] The viability was determined based on the quantification of the ATP present in the cells per well. Through the luminescence detection of luciferase using a multiplate reader the ATP amount was measured and quantified. Resulting luminescence signal of samples was normalized to the signal of control cells.
For series [2], the system named is Chinese hamster ovary cells (CHO-K1). In words: In vitro Glutathione assay (GSH/GSSG-Glo) after H2O2-induced oxidative stress. It counts as cell-based. Particulars: 24 h pre-incubation or constant incubation, 100 µM H2O2 for 20 min, with and without FBS, compared to medium control not treated with H2O2. The procedure:
The addition of Cys-peptides and mixtures of Cys-peptides with L-cysteine and L-cystine to the cell culture medium was evaluated regarding their influence on the intracellular glutathione level. Oxidative stress was simulated by the addition of hydrogen peroxide solution. The assay was performed with Chinese hamster ovary cells (CHO-K1). […] In relation to the oxidative stress conditions the cells were pre-incubated or constantly incubated with Cys-peptide samples. […] The samples (Ala-Cys)2 and (Lys-Cys)2 were dissolved in culture medium, either containing 10% fetal bovine serum (FBS) or medium without FBS, to perform the assay setup in presence and absence of FBS during the stress phase. […] This leads to luminescence signals which were measured in a multiplate reader. To calculate the GSH concentrations, a dilution series of a glutathione standard was performed, and luminescence signals measured. Relative luminescence signals were plotted against GSH concentrations. After subtracting the background signals, GSH concentration in samples was calculated based on the linear standard curve. […] After luminescence signals were measured, the intracellular glutathione concentration of cells incubated with Cys-peptides and mixtures and treated with 100 µM H2O2 were compared to a medium control, which was not treated with H2O2.

The conditions of series [3]: cell culture media relevant pH of about 7; cited from earlier work.

Where a SMILES comes first, the peptide text is derived from it. Bridges are numbered along the chain shown (N, C = ends). Roman numbers before positions name the chains, in order.

Consider `C[C@H](N)C(=O)N[C@@H](CSSC[C@H](NC(=O)[C@H](C)N)C(=O)O)C(=O)O` [(Ala-Cys)2, N,N'-di-L-alanyl-L-cystine] (I: H-Ala-Cys-OH / II: H-Ala-Cys-OH; disulfide I:2-II:2), for which the “viability of MSCs” value in series [1] is “does not have a negative effect on the viability”.
As for `N[C@@H](CS)C(=O)O` [L-Cysteine], the “viability of MSCs” value in series [1] is “negatively affects viability”. Further, the intracellular glutathione level result in series [2] is on record as “increase intracellular glutathione concentration”.
With `N[C@@H](CSSC[C@H](N)C(=O)O)C(=O)O` [cystine, L-cystine], the solubility result in series [3] was “around 1 mM”.

The record behind these values is patent publication EP4166651A1, “METHODS AND COMPOSITION TO INCREASE CELLULAR GLUTATHIONE LEVEL” (priority 2021, dated 2023).
